Legend:
macrophages = assay: Macrophage depletion in PyMT tumors in the MAFIA mouse model; format: in vivo; settings: vs vehicle
From the text: Summary Tumor cell intravasation at sites of transient vascular permeability associated with TMEM was studied using mouse mammary tumor virus—polyoma middle T antigen (MMTV-PyMT) autochthonous and implanted models of human patient-derived mammary carcinoma. Single cell resolution of cell activity at TMEM in live animals was achieved using extended time-lapse imaging on a custom-built two-laser multiphoton microscope. To investigate the role of macrophages in tumor cell intravasation and blood vessel permeability, the MAFIA mouse model was used to deplete macrophages. Observation of extravascular dextran, vascular junction proteins and protein expression in tissue was performed using immunofluorescence microscopy. Further investigation of the mechanism of macrophage-mediated tumor cell intravasation and blood vessel permeability at TMEM utilized anti-mouse-VEGFA inhibitory antibody and the ablation of Vegfa expression in monocytes using a myeloid-specific (Csf1r promoter), tamoxifen-inducible Cre expressing mouse strain was crossed with Vegfa^flox/flox mice with gene ablation induced with tamoxifen.
Immunofluorescence image analysis. […] The remaining extravascular dextran area, and blood vessel area were then measured. […]

[1] = test system: Tie2 macrophage function in TMEM; assay: TMEM density and TMEM activity (IV-dextran/ZO-1 staining) in tumor after rebastinib; format: in vivo
From the text: FIG. 11A-11B. […] (B) Quantification of vascular permeability activity of tumor TMEM using vascular permeability marker IV-dextran/ZO-1 staining intensity (n=7 and 9; * , P=0.0177).
The relative activity of TMEM can be quantified in (e.g., FFPE) tissue sections in several ways, e.g.: • 1. as the ratio of IV-dextran (or other IV contrast agent) that has leaked from the blood vessel into the tissue at the time of Formaldehyde Fixation after IV injection of contrast agent in preparation for FFPE (measure of local vascular permeability) divided by ZO-1 or VE-Cad staining intensity at TMEM (FIG. 11). Higher dextran/ZO-1=more TMEM activity; • 2. as the ratio of ZO-1 or VE-Cad staining intensity at TMEM per area of blood vessel (CD31 staining area) (FIG. 12). Higher VE-Cad or ZO-1/CD31=less TMEM activity; • 3. as the absolute intensity of ZO-1 or VE-Cad staining intensity at TMEM sites (FIG. 10). Higher VE-Cad staining=less TMEM activity.
The activity status of TMEM (TMEM^Active) in patient tissue samples can be used to assess the efficacy of dissemination inhibitor drugs that inhibit TMEM activity. For example, observe the effects of the following dissemination inhibitors on TMEM^Active using the quantitation methods for TMEM activity described in #1-3 above as follows: • a. Rebastinib, the Tie2 inhibitor which blocks VEGF^Hi TMEM macrophage function, (FIG. 11); • b. […]

| SMILES | blood vessel permeability (extravascular 155 kDa dextran-TMR) (macrophages; FIG. 5E) | tumor cell intravasation (circulating tumor cells) (macrophages; FIG. 5F) | TMEM density in 10 40× fields ([1]; FIG. 11A) | vascular permeability activity of tumor TMEM (IV-dextran/ZO-1 staining intensity) ([1]; FIG. 11B, n=7 and 9, P=0.0177) |
| --- | --- | --- | --- | --- |
| CC[C@H](C(=O)N1CCCC[C@H]1C(=O)O[C@H](CCc1ccc(OC)c(OC)c1)c1cccc(OCC(=O)NCC(CNC(=O)COc2cccc([C@@H](CCc3ccc(OC)c(OC)c3)OC(=O)[C@@H]3CCCCN3C(=O)[C@@H](CC)c3cc(OC)c(OC)c(OC)c3)c2)CN(C)C)c1)c1cc(OC)c(OC)c(OC)c1 [B/B homodimerizer] | reduces | reduces |  |  |
| CNC(=O)c1cc(Oc2ccc(NC(=O)Nc3cc(C(C)(C)C)nn3-c3ccc4ncccc4c3)c(F)c2)ccn1 [Rebastinib] |  |  | not significant | inhibits TMEM activity |
